In ChEMBL document CHEMBL1667728, “Stachylines A-D from the sponge-derived fungus Stachylidium sp” (J Nat Prod, 2011) one finds Activity data, which are given here for three compounds.

One assay concerns Influenza A virus. In words: Antiviral activity against Influenza virus. The assay is classed as functional, organism-based.
Assay [1] deals with Human immunodeficiency virus. As to the kind of experiment: Antiviral activity against HIV. The format is functional, organism-based.

Structures are written as SMILES. The source made the active and inactive calls. No cut-off for these calls is given here.

Regarding `C=C(C)[C@H](O)COc1ccc(CCO)cc1`, the outcome (in the assay on Influenza A virus; in assay [1]) was inactive.

Turning to `C=C(C)[C@H](O)COc1ccc(CC(=O)O)cc1`, the outcome (in the assay with Influenza A virus; in assay [1]) was inactive.

Consider `C=C(C)[C@H](O)COc1ccc(CC=NO)cc1` (mixture of isomers), for which the outcome (in the assay on Influenza A virus; in assay [1]) was inactive.
